Patent US10028949B2, “Parenteral formulations of lipophilic pharmaceutical agents and methods for preparing and using the same” (priority 2011, dated 2018)
Converted amounts (≈) assume the structure as drawn. “And” between values parts separate entries of the source, which are not always exact repeats. Equal entries are not always repeated. Where two headings read alike, the source gives them in different places.

Experiments:
[1] = tested on: Aspergillus fumigatus (ATCC strain 90906); assay: Mold susceptibility test (MIC, CLSI M38A); format: cell-based; conditions: Table 4, read-out at 48 hr, range tested 32 ug/ml to 0.03 ug/ml
Text: To further determine the antifungal activity of the compounds in the new formulation systems the inventors investigated the efficacy of the various agents against additional strains of mucor and Aspergillus (The Rhizomucor was a clinical isolate from a patient isolate) and the Aspergillus fumigatus (ATCC strain 90906) used was as previously described. Again, the susceptibility tests were set-up using the standardized test method (CLSI M38A). The used drugs were provided in the described final use-formulation VE-acetone/PEG/D5W. All drugs were diluted in RPMI-Mops medium: YeastOne, Sensititer (Lot 151416SA, expiration date in 2011).
Briefly, susceptibility tests were set-up using a standardized methodology (CLSI M38A). Drugs were diluted into RPMI-Mops medium (Yeast One Broth (Sensititer, product Y3462, Trek Diagnostic Systems, Cleveland, Ohio) Sensititer Lot number 151416SA—expiration date 2011). Two different strains of […] were tested, the standardized evaluation/read out was performed at 24 hours after the start of each culture. The tests were repeated twice and all MIC values (minimum inhibitory concentration) determined as an average of the two experiments.

[2] = tested on: Mucorales (Rhizopus lab strain); assay: Mold susceptibility test (MIC); format: cell-based; conditions: Table 4, read-out at 48 hr, range tested 32 ug/ml to 0.03 ug/ml
[3] = Plasma clearance of Itraconazole and Posaconazole after IV injection in mice; format: in vivo, Swiss Webster mice
Experimental: To avoid analytical interference from endogenous plasma proteins in the chromatogram when assaying Itra and Posa in plasma samples, an extraction/purification step utilizing precipitation of protein material with acetonitrile was performed. Briefly, plasma proteins were precipitated by adding acetonitrile to a final volume ratio plasma:acetonitrile of 1:2. The mixture was vortexed for 30 seconds and centrifuged for 5 min. at 14,000 rpm in an Eppendorff microcentrifuge. The deproteinated supernatant, containing Itra, was injected into the HPLC to determine the drug concentration.

[4] = tested on: Aspergillus fumigatus [LAB-A from patient AF 040 511]; assay: Mold susceptibility test (MIC, CLSI M38A); format: cell-based; conditions: at 48 hr, in novel solvent
Experimental: (§1) The range of drug concentrations tested was 150, 25, 12, 6, 3, 1.5, 0.75, 0.38, 0.19, 0.09, 0.04, and 0 (control) μg/mL. The susceptibility test was set-up using the standard method for filamentous fungi (CLSI, M38A standard). […] Zygomycete (Lab Z) inoculum was made 80% transmission in Saline. […] Posa was supplied at 2.0 mg/ml in vehicle. The Zygomycete was incubated at 33° C. for the first 24 hr to get growth established.

[5] = tested on: Rhizomucor sp. [Lab-Z is derived from patient 041511]; assay: Mold susceptibility test (MIC, CLSI M38A); format: cell-based; conditions: at 48 hr, in novel solvent
Experimental: as §1

`CCC(C)n1ncn(-c2ccc(N3CCN(c4ccc(OCC5COC(Cn6cncn6)(c6ccc(Cl)cc6Cl)O5)cc4)CC3)cc2)c1=O` (stereo not drawn) [Itra/D, itraconazole] showed an MIC [1] of 0.12 µg/mL (≈ 0.17 µM) and an MIC [2] of 0.6 µg/mL (≈ 0.85 µM).
With `CC[C@@H]([C@H](C)O)n1ncn(-c2ccc(N3CCN(c4ccc(OC[C@@H]5CO[C@@](Cn6cncn6)(c6ccc(F)cc6F)C5)cc4)CC3)cc2)c1=O` [Posaconazole, posaconazole] the plasma concentration ([3]; 5 mg/kg BW in mice, from ten minutes to at least 2 hours after drug injection) was 3 to 5 µg/mL, the “plasma concentration, individual” value ([3]; 5 mg/kg IV, mice, 0.2 hours) was 3.43 µg/mL and 1.88 µg/mL and 4.59 µg/mL and 4.82 µg/mL and the “plasma concentration, individual” value ([3]; 5 mg/kg IV, mice, 2.0 hours) was 4.85 µg/mL and 5.03 µg/mL and 4.21 µg/mL. The “plasma concentration, individual” value ([3]; 5 mg/kg IV, mice, 7.0 hours) was 3.86 µg/mL, the “plasma concentration, individual” value ([3]; 5 mg/kg IV, mice, 24 hours) was 0.03 µg/mL and 0.56 µg/mL and 0.47 µg/mL and the “plasma concentration, individual” value ([3]; 5 mg/kg IV, mice, 30 hours) was 0.14 µg/mL and 0.29 µg/mL and 0.04 µg/mL. The concentration at 0.2 hours ([3]; Swiss Webster, mouse, plasma, intravenous, 5 mg/kg, 5 mg/kg IV, mice, 0.2 hours) was 3680 ng/mL, the concentration at 2 hours ([3]; Swiss Webster, mouse, plasma, intravenous, 5 mg/kg, 5 mg/kg IV, mice, 2.0 hours, read-out: plasma concentration, individual) was 4990 ng/mL and the concentration at 2 hours ([3]; Swiss Webster, mouse, plasma, intravenous, 5 mg/kg, 5 mg/kg IV, mice, 2.0 hours, read-out: plasma concentration, mean) was 4770 ng/mL. For the same molecule, the concentration at 7 hours ([3]; Swiss Webster, mouse, plasma, intravenous, 5 mg/kg, 5 mg/kg IV, mice, 7.0 hours, read-out: plasma concentration, individual) was 2610 ng/mL, the concentration at 7 hours ([3]; Swiss Webster, mouse, plasma, intravenous, 5 mg/kg, 5 mg/kg IV, mice, 7.0 hours, read-out: plasma concentration, mean) was 3230 ng/mL and the concentration at 24 hours ([3]; Swiss Webster, mouse, plasma, intravenous, 5 mg/kg, 5 mg/kg IV, mice, 24 hours) was 350 ng/mL. For the same molecule, the concentration at 30 hours ([3]; Swiss Webster, mouse, plasma, intravenous, 5 mg/kg, 5 mg/kg IV, mice, 30 hours) was 160 ng/mL, the MIC [4] was 0.04 µg/mL (≈ 0.0571 µM) and the MIC [5] was 0.04 µg/mL (≈ 0.0571 µM).
In the case of `CC[C@@H]([C@H](C)O)n1ncn(-c2ccc(N3CCN(c4ccc(OC[C@@H]5CO[C@@](Cn6cncn6)(c6ccc(F)cc6F)C5)cc4)CC3)cc2)c1=O` [Posa/D, posaconazole], the MIC [1] was 0.03 µg/mL (≈ 0.0428 µM) and the MIC [2] was 0.12 µg/mL (≈ 0.171 µM).
For `CCC(C)n1ncn(-c2ccc(N3CCN(c4ccc(OCC5COC(Cn6cncn6)(c6ccc(Cl)cc6Cl)O5)cc4)CC3)cc2)c1=O` (stereo not drawn) [Itraconazole, itraconazole], the “plasma concentration, individual” value ([3]; 5 mg/kg IV, mice, 10 min) was 3.86 µg/mL and 3.59 µg/mL and 2.13 µg/mL, the “plasma concentration, individual” value ([3]; 5 mg/kg IV, mice, 30 min) was 1.93 µg/mL and the “plasma concentration, individual” value ([3]; 5 mg/kg IV, mice, 120 min) was 0.77 µg/mL. The concentration at 10 min ([3]; Swiss Webster, mouse, plasma, intravenous, 5 mg/kg, 5 mg/kg IV, mice, 10 min, read-out: plasma concentration, individual) was 3340 ng/mL, the concentration at 10 min ([3]; Swiss Webster, mouse, plasma, intravenous, 5 mg/kg, 5 mg/kg IV, mice, 10 min, read-out: plasma concentration, mean) was 3230 ng/mL and the concentration at 30 min ([3]; Swiss Webster, mouse, plasma, intravenous, 5 mg/kg, 5 mg/kg IV, mice, 30 min, read-out: plasma concentration, individual) was 1310 ng/mL. For the same molecule, the concentration at 30 min ([3]; Swiss Webster, mouse, plasma, intravenous, 5 mg/kg, 5 mg/kg IV, mice, 30 min, read-out: plasma concentration, mean) was 1620 ng/mL, the concentration at 60 min ([3]; Swiss Webster, mouse, plasma, intravenous, 5 mg/kg, 5 mg/kg IV, mice, read-out: plasma concentration, individual) was 770 ng/mL and the concentration at 60 min ([3]; Swiss Webster, mouse, plasma, intravenous, 5 mg/kg, 5 mg/kg IV, mice, read-out: plasma concentration, mean) was 770 ng/mL. It also gave a concentration at 120 min ([3]; Swiss Webster, mouse, plasma, intravenous, 5 mg/kg, 5 mg/kg IV, mice, 120 min, read-out: plasma concentration, individual) of 640 ng/mL and a concentration at 120 min ([3]; Swiss Webster, mouse, plasma, intravenous, 5 mg/kg, 5 mg/kg IV, mice, 120 min, read-out: plasma concentration, mean) of 710 ng/mL.
